We go through five compounds from US4746663A, “Pyrazolo[4,3-d]pyrimidine derivative, process for its production, and antihyperlipidemic or antiatherosclerotic agent containing it” (Nissan Chemical Industries Ltd., priority 1985, dated 1988).

The structures appear in SMILES notation. Entries after “also recorded” stand apart in the source; their conditions may differ.

For series [1] the following is noted: literature, in words; cited from earlier work.
The test system of series [2] is emulsion-induced hyperlipidemic rats. The experiment in a line: Test 1: antihyperlipidemic activity in emulsion-induced hyperlipidemic rats. Type of series: in vivo, Male S.D. rats. As to conditions: via stomach tube daily, 3 days; for Reduction rate of serum Chol. / Increase rate of serum HDLChol.: vs control group; for Degree of hepatomegaly (change rate of the liver weight): liver weight per 100 g body weight vs control group. The procedure: The antihyperlipidemic activity in emulsion-induced hyperlipidemic rats:
Male S.D. rats weighing 80-90 g (4 weeks old) were used. They were divided into groups of 5 to 6 rats each. The test compounds suspended in 0.5% CMC-Na(carboxymethyl cellulose sodium salt) were given to the rats in a daily dose of 4 ml/kg via stomach tube every 10:00 a.m. After 30 min., lipids emulsion having the following composition was orally given to the rats in an amount of 2.5 ml per rat.
During the experimental period of 3 days, the rats were fed on a standard commercial diet and water ad libitum. […] The total cholesterol and HDL cholesterol were measured.
The weight of the liver was measured. To the control group, only the aqueous CMC-Na solution and the lipids emulsion were given.
The fractionation of lipoproteins was conducted by a dextran sulfate-MgCl2 precipitation method.
Cholesterol in serum was measured by means of a cholesterol measuring kit (Cholesterol C-Test Wako, manufactured by Wako Junyaku Co., Ltd.), and cholesterol in HDL was measured by means of NC Hi-Set, manufactured by Nippon Chemiphar Co., Ltd.
Further, the reduction rate of Chol was calculated by the following equation. [formula] where A is the amount of serum Chol (mg/dl) of the control group, and B is the amount of serum Chol (mg/dl) of the group to which the therapeutic agent was administered.
Likewise, the increase rate of HDL-Chol was calculated by the following equation. [formula] where C is the amount of serum HDL-Chol (mg/dl) of the control group, and D is the amount of serum HDL-Chol (mg/dl) of the group to which the therapeutic agent was administered.
The degree of hepatomegaly (i.e. the change rate of the liver weight) was calculated by the following equation. [formula] where E is the liver weight (g) per 100 g of the body weight of the control group, and F is the liver weight (g) per 100 g of the body weight of the group to which the therapeutic agent was administered.

For series [3] the following is noted: animal experiments; Cancer Res., 39, 3419 (1979); cited from earlier work.
Series [4] can be described thus: Test 2: acute toxicity. Particulars: mouse, in vivo, po, 1000 mg/kg in corn oil, male ddY mice, after seven days. The procedure:
The test compounds dissolved in corn oil were administered p.o. to male ddY mice. The acute toxicity was determined based on the mortality after seven days. In respect of the compounds of Examples 1 and 2 of the present invention, the mortality was 0% even at a dose of as high as 1000 mg/kg by oral administration.

Series [5] deals with serum lipid. Particulars: Science, 193, 903 (1976); J. Lipid Res., 12, 596 (1971); cited from earlier work.
The mark [6] stands for this setting: 300 mg/kg, minus value represents a reduction rate.

For `O=C(O)c1cccnc1` [nicotinic acid], the subsidiary ill effects entry in series [1] is recorded as “flashing or gastroenteric troubles”.
With `CCOC(=O)C(C)(C)Oc1ccc(Cl)cc1` [Clofibrate, reference compound], in series [2] (300 mg/kg), the “Reduction rate of serum Chol.” value is 35.6% and the “Degree of hepatomegaly (change rate of the liver weight)” value is reported as 12.1%. Also, the “Increase rate of serum HDLChol.” value in series [2] (setting [6]) was -18.2%. In addition, in series [1], the subsidiary ill effects entry is “myalgia or hepatic insufficiency; also recorded: likely to lead to gallstone formation”. Moreover, the hepatic carcinoma entry in series [3] is given as “brings about hepatic carcinoma”.
For the compound `CCCCC/C=C\C/C=C\CCCCCCCCOc1c2ncnc(SCC(=O)O)c2nn1C` [Example 1, 2-Methyl-3-linoleyloxy-7-carboxymethylthio-pyrazolo[4,3-d]pyrimidine], the results for the “Increase rate of serum HDLChol.” value in series [2] (25 mg/kg), in series [2] (50 mg/kg) and in series [2] (setting [6]) were 21.8%, 13.4% and -17.7%, respectively. The entries for the “Reduction rate of serum Chol.” value in series [2] (25 mg/kg), in series [2] (50 mg/kg) and in series [2] (300 mg/kg) were 25.6%, 35.5% and 73.5%, respectively. Moreover, the “Degree of hepatomegaly (change rate of the liver weight)” value in series [2] (25 mg/kg) is on record as 6.0%; in series [2] (50 mg/kg) it was 7.6%; in series [2] (300 mg/kg) it was 17.8%. In series [4], the mortality at 168 h worked out at 0%.
In the case of `CCCCCCCCCCCCCCCCOc1c2ncnc(SCC(=O)O)c2nn1C` [Example 2, 2-Methyl-3-cetyloxy-7-carboxymethylthio-pyrazolo[4,3-d]pyrimidine], in series [2] (300 mg/kg), the “Reduction rate of serum Chol.” value is recorded as 41.0% and the “Degree of hepatomegaly (change rate of the liver weight)” value came to 9.2%. In series [2] (setting [6]), the “Increase rate of serum HDLChol.” value is on record as 14.1%. The same compound had a mortality at 168 h in series [4] of 0%.
For the compound `Nc1ncnc2[nH]ncc12` [1H-pyrazolo[3,4-d]pyrimidine-4-amine], in series [5], the “function to reduce serum lipid” value is “function to reduce serum lipid”.
